Test results as given in US20240342190A1, “METHODS FOR REDUCING ISCHEMIA-REPERFUSION INJURIES” (BioMimetix JV, LLC, priority 2023, published 2024).

Columns and labels:
[1] = Experiment 8: interaction of BMX-001 with t-PA (blood clot dissolution); parameters: species or system rat; details: blood clot dissolution, t-PA vs t-PA plus BMX-001
Description: Fresh arterial blood samples were collected from young male rats and distributed into 21 pre-weighed centrifuge tubes. After sitting at 37° C. for 3 hours, the blood clots were formed. The supernatant was removed from these tubes and then the tubes with blood clots were weighed. The weight of the blood clot was calculated (=the tube with blood clot-pre-weighed tube). Then, 1 ml saline, t-PA (1 mg/ml) or t-PA (1 mg/ml) plus BMX-001 (50 μg/ml) were added (n=7 for each group) and tubes placed in 37° C. dry incubator for 3 hours. The liquids were then removed from the tubes. The tubes with remaining blood clots were weighed again. The percentage of blood clot dissolved by t-PA was calculated.

[2] = system: aged female Fisher 344 rats subjected to 90 min of MCAO; experiment: Experiment 5: stroke outcome in aged female rats; format: in vivo, rat; details: for Neurologic score: median±IQR, p<0.001
Description: (§1) The rats were fasted overnight for glucose control. On the surgery day, they were anesthetized with 5% isoflurane in 30% oxygen balanced with nitrogen. The trachea was orally intubated, and both lungs were mechanically ventilated to maintain normocapnia. Isoflurane was reduced to 1.5% during the surgical procedure. A 22-gauge needle thermistor was percutaneously inserted beneath the temporalis muscle adjacent to the skull. The pericranial temperature was maintained at 37.0° C.±0.2° C. by a surface heat lamp. The tail artery was cannulated with PE 50 tubing (BD Intramedic™ Polyethylene Tubing, Sparks, MD, USA), and arterial blood pressure was continuously monitored. 50 IU of heparin was given via arterial line to prevent intra-arterial thrombosis. Arterial blood samples were collected pre, during, and after ischemia for blood gas, glucose, and hematocrit measurements.
(§2) Ischemic stroke was induced by transiently occluding the middle cerebral artery (MCAO) as previously reported.^23,24 Briefly, a midline cervical incision was made and the right common carotid artery […] was identified. The external and internal carotid arteries were dissected. […] The internal carotid artery (ICA) was dissected distally until the origin of the pterygopalatine artery was visualized. After surgical preparation, a 10 min interval was allowed for physiologic stabilization. […] The common carotid artery was re-opened, and a timer was started as the onset of cerebral ischemia.
(§3) After 90 min of MCAO, the filament was removed and a PE-10 tube (BD Intramedic™ Polyethylene Tubing, Sparks, MD, USA) was inserted into the ICA beyond the origin of the pterygopalatine artery. The vehicle or BMX-001 (30-50 μg/kg) solution (1 μl/g for both solutions, 250 μl for the 250 g rat) was slowly infused for 5 minutes via syringe pump. At the completion of intra-carotid infusion, the PE tube was removed and the ECA stump was permanently ligated. The tail artery catheter was removed and both the neck incision and tail incision were infiltrated with bupivacaine and closed with suture. Isoflurane was discontinued. Rats were disconnected from the ventilator when they attained spontaneous respiration and kept in a recovery cage. The tracheas were extubated after recovery of the righting reflex. They were in an O2 enriched environment (30% O2) for 1 h and then returned to the home cage.
(§4) Post-stroke neurologic deficits were assessed at day 7 and 28 using a standardized neurological scoring system.^27,28 General status, simple motor deficit, complex motor deficit, and sensory deficit were evaluated, including the ability of walking on a beam and climbing on the vertical screen. The total score each animal received was the sum of all four individual scores (0-48, 0=normal and 48=the worst score).
(§5) Upon the completion of functional tests, the animals were weighed, anesthetized with isoflurane, and decapitated. The brains were harvested, frozen at −20° C. in 2-methylbutane on dry ice, and stored in a −80° C. freezer. Serial quadruplicate 20-μm-thick coronal sections were cut using a Leica cryostat and mounted on the slides at 720-μm interval over the rostral-caudal extent of the brain. The sections were dried on a slide heater at 36° C., and stained with hematoxylin and eosin. A section from each […] interval was digitized with a video camera controlled by an image analyzer (MCID, the MicroComputer Imaging Device, Imaging Research Inc, St. Catharines, Ontario, Canada). […] With the observer blinded to the experimental condition, the following regions of interest (ROI) were outlined individually using an operator-controlled cursor, including non-infarcted ipsilateral cerebral cortex, non-infarcted ipsilateral subcortex, contralateral cerebral cortex, and contralateral subcortex. The area in each ROI (mm^2) was determined by automated counting of calibrated pixels and the volume (mm^3) was computed by the known interval between sections over the rostral-caudal extent of brain. […]

[3] = system: young male spontaneously hypertensive rats (SHR) subjected to 90 min of MCAO; experiment: Experiment 4: stroke outcome in young spontaneously hypertensive rats; format: in vivo, rat; details: for Neurologic score: median±IQR
Description: as §1, §2, §3, §4, §5

[4] = system: young male Wistar rats subjected to 90 min of MCAO (ischemic stroke); experiment: Experiment 3: duration of BMX-001 treatment and long-term stroke outcome in young male rats; format: in vivo, rat; details: for MAP: 10 minutes post-stroke; for Neurologic score: median±IQR; for Body weight: p=0.37; for Total infarct: measured at 28 days, p=0.46
Description: as §1, §2, §3, §4, §5

[5] = system: young male Wistar rats subjected to 90 min of MCAO (ischemic stroke); experiment: Experiment 1: acute stroke outcome after 90 min MCAO, intracarotid BMX-001 then subcutaneous for 7 days; format: in vivo, rat
Description: as §1, §2, §3, §4, §5

[6] = system: young female Wistar rats subjected to 90 min of MCAO (ischemic stroke); experiment: Experiment 2: long-term stroke outcome in young female rats; format: in vivo, rat; details: for Neurologic score: median±IQR, p=0.04 vs vehicle
Description: as §1, §2, §3, §4
Upon the completion of functional tests, the animals were weighed, anesthetized with isoflurane, and decapitated. The brains were harvested, frozen at −20° C. in 2-methylbutane on dry ice, and stored in a −80° C. freezer. Serial quadruplicate 20-μm-thick coronal sections were cut using a Leica cryostat and mounted on the slides at 720-μm interval over the rostral-caudal extent of the brain. The sections were dried on a slide heater at 36° C., and stained with hematoxylin and eosin. […] The area in each ROI (mm^2) was determined by automated counting of calibrated pixels and the volume (mm^3) was computed by the known interval between sections over the rostral-caudal extent of brain. […]

[7] = printed 'on day 28 in BMX-001 group'

In the case of `CCCCOCC[n+]1ccccc1C1=C2C=CC3=[N+]2[Mn]24[n]5c1ccc5C(c1cccc[n+]1CCOCCCC)=C1C=CC(=[N+]12)C(c1cccc[n+]1CCOCCCC)=c1ccc([n]14)=C3c1cccc[n+]1CCOCCCC` [BMX-001, MnTnBuOE-2-PyP^5+], the “Interaction of BMX-001 with t-PA, in words” value [1] is reported as “does not React with t-PA”, the MAP ([2]; 10 minutes post-stroke, aged female Fisher 344 rats) is reported as 90 ± 13 mmHg and the “Infarct volume (FIG. 5, Panel C), in words” value ([2]; 28 days after stroke) is reported as “significantly reduced infarct volume”. The “Reduction of infarct volume” value ([2]; 28 days after stroke, vs vehicle) was 60%, the Subcortex infarct volume ([2]; 28 days, p=0.0010) was 10±12 mm^3 and the Total infarct volume ([2]; 28 days, p=0.0037 vs vehicle) was 31±41 mm^3. For the same compound, the Cortex infarct volume ([2]; 28 days, p=0.0122 vs vehicle) was 21±32 mm^3, the Neurologic score ([2]; day 7) was 4±4.75 and the “Neurologic functions (FIG. 5, Panel B), in words” value ([2]; day 7 and 28 post-stroke) was “significantly attenuated neurologic deficits”. For the same compound, the Body weight ([2]; day 7 post-stroke) was 233±19 grams, the “Body weight loss from the baseline body weight” value ([2]; day 7 post-stroke) was 8 grams and the Neurologic score ([2]; day 28) was 4±4.75. The “Rats died at post-stroke day 2 due to large infarct” value ([2]; of n=17) was “one”, the MAP ([3]; 10 minutes post-stroke, SHR rats) was 83 ± 11 mmHg and the “Infarct volume (FIG. 4, Panel C), in words” value ([3]; 28 days) was “no intra-group difference”. The Subcortex infarct volume ([3]; 28 days, p=0.14) was 51±23 mm^3, the Total infarct volume ([3]; 28 days, p=0.21) was 179±51 mm^3 and the Cortex infarct volume ([3]; 28 days, p=0.37) was 128±37 mm^3. For the same compound, the Neurologic score ([3]; day 7, p=0.05 vs vehicle) was 14±8, the Neurologic score ([3]; day 28, p=0.018 vs vehicle) was 9.5±6.25 and the “Neurological deficits (FIG. 4, Panel B), in words” value ([3]; day 28 post-stroke) was “significantly improved”. For the same compound, the “Rats survived for 28 days” value ([3]; of n=15, three BMX-001 rats died at 8, 9 and 10 days after stroke) was 12, the MAP ([4]; group BMX-001 for 7 days) was 67 ± 5 mmHg and the MAP ([4]; group BMX-001 for 28 days) was 71 ± 6 mmHg. The “Neurological deficits (FIG. 3, Panel B), in words” value ([4]; both day 7 and day 28 post-stroke) was “significantly improved”, the Neurologic score ([4]; day 7 post-stroke, 7 days of BMX-001 group) was 10±8 and the Neurologic score ([4]; day 7 post-stroke, 28 days of BMX-001 group) was 11±8. For the same compound, the Body weight ([4]; day 7 post-stroke, printed 'on day 7 in BMX-001 group') was 276±46 grams, the “Infarct volume (FIG. 3, Panel C), in words” value ([4]; day 28) was “no intra-group difference” and the Neurologic score ([4]; day 28 post-stroke, 7 days of BMX-001) was 6±5. For the same compound, the Neurologic score ([4]; day 28 post-stroke, 28 days of BMX-001) was 6±4, the Total infarct ([4]; 7 days of BMX-001 group) was 131±66 mm^3 and the Total infarct [4, 7] was 112±64 mm^3. For the same compound, the Body weight [4, 7] was 280±33 grams, the “Perioperative blood pressure (FIG. 1, Panel A), in words” value ([5]; 5 min vs 45 min post-treatment) was “lower blood pressure” and the Perioperative blood pressure ([5]; 10 minutes post-ischemia, after 30 μg/kg intracarotid BMX-001, p=0.04 vs vehicle) was 75±4 mmHg. For the same compound, the Body weight ([5]; 24 hours post-stroke) was 252±9 grams, the “Post-stroke body weight recovery (FIG. 1, Panel B), in words” value ([5]; body weight at 7 Days vs 24 hours, p=0.02) was “promoted post-stroke body weight recovery” and the “Infarct volume (FIG. 1, Panel D), in words” value ([5]; day 7 post-stroke) was “significantly improved”. The “Neurologic scores (FIG. 1, Panel C), in words” value ([5]; day 7 post-stroke) was “significantly improved”, the Body weight ([5]; day 7 post-stroke, p=0.02 vs 24 hours) was 279±9 grams and the Subcortex infarct ([5]; day 7 post-stroke, p=0.02 vs vehicle) was 38.964 ±8.892 mm^3. It also gave a Total infarct ([5]; day 7 post-stroke, p=0.04 vs vehicle) of 89.097±48.424 mm^3, a Cortex infarct ([5]; day 7 post-stroke, p=0.07 vs vehicle) of 49.864±42.899 mm^3 and a Neurologic score ([5]; post-stroke day 7, score 0-48 (0=normal), median±IQR, p<0.01 vs vehicle) of 4±3.5. The Neurologic score ([6]; 7 days post-stroke) was 11±7, the Neurologic score ([6]; 28 days post-stroke) was 7±6 and the Infarct volume ([6]; 28 days post-stroke, p=0.38 vs vehicle) was 157.378 ±63.699 mm^3. For the same compound, the “Neurologic score (FIG. 2, Panel A), in words” value ([6]; day 7 and day 28 compared to the vehicle group) was “better neurologic score” and the “Infarct volumes (FIG. 2, Panel B), in words” value ([6]; day 28, no intragroup difference was detected) was “smaller”.
